For the data set, the system named is rodent carcinogenicity bioassays, tumor incidence. Description: CCRIS carcinogenicity studies. The method in brief: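 NCI-built, expert-reviewed records of carcinogenicity and related test outcomes (mutagenicity, tumor promotion/inhibition) compiled from published and report sources, historical span 1985-2011, not updated.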

Active and inactive are the calls of the source. No rule for the calls is given here.

As for `COc1ccc(C(=O)Nc2c(Cl)cncc2Cl)cc1OC1CCCC1`, the carcinogen call is “active; positive” (Species: RAT, Strain/Sex: SPRAGUE-DAWLEY/FEMALE, Route: INHALATION, Dose: 0, 0.125, 0.5, 1.0 MG/KG BW/D 1 HR/D IN A DRY-POWDER FORMULATION WITH LACTOSE VEHICLE USING A NOSE-ONLY AEROSOL EXPOSURE, Dose: 0, 0.125, 0.5, 1.0 MG/KG BW/D 1 HR/D IN A DRY-POWDER FORMULATION WITH LACTOSE VEHICLE USING A NOSE-ONLY AEROSOL EXPOSURE, Tumor Site: Type of Lesion: NASAL OLFACTORY REGION: TUMORS) and “active; positive” (Species: RAT, Strain/Sex: SPRAGUE-DAWLEY/MALE, Route: INHALATION, Dose: 0, 0.125, 0.5, 1.0 MG/KG BW/D 1 HR/D IN A DRY-POWDER FORMULATION WITH LACTOSE VEHICLE USING A NOSE-ONLY AEROSOL EXPOSURE, Dose: 0, 0.125, 0.5, 1.0 MG/KG BW/D 1 HR/D IN A DRY-POWDER FORMULATION WITH LACTOSE VEHICLE USING A NOSE-ONLY AEROSOL EXPOSURE, Tumor Site: Type of Lesion: NASAL OLFACTORY REGION: TUMORS).

With `O=C1CCCO1`, the carcinogen call was “inactive; negative” (Species: MOUSE, Strain/Sex: B6C3F1/FEMALE, Route: GAVAGE, Dose: 0, 262, 525 MG/KG IN CORN OIL 5 D/WK FOR 103 WK (STUDY DURATION: 2 YR), Dose: 0, 262, 525 MG/KG IN CORN OIL 5 D/WK FOR 103 WK (STUDY DURATION: 2 YR)); “equivocal” (Species: MOUSE, Strain/Sex: B6C3F1/FEMALE, Route: GAVAGE, Dose: 0, 262, 525 MG/KG IN CORN OIL 5 D/WK FOR 103 WK (STUDY DURATION: 105 WK), Dose: 0, 262, 525 MG/KG IN CORN OIL 5 D/WK FOR 103 WK (STUDY DURATION: 105 WK), Tumor Site: Type of Lesion: ADRENAL MEDULLA: BENIGN OR MALIGNANT PHEOCHROMOCYTOMA); “inactive; negative” (Species: RAT, Strain/Sex: F344/FEMALE, Route: GAVAGE, Dose: 0, 225, 450 MG/KG IN CORN OIL 5 D/WK FOR 103 WK (STUDY DURATION: 2 YR), Dose: 0, 225, 450 MG/KG IN CORN OIL 5 D/WK FOR 103 WK (STUDY DURATION: 2 YR)); “inactive; negative” (Species: RAT, Strain/Sex: F344/MALE, Route: GAVAGE, Dose: 0, 112, 225 MG/KG IN CORN OIL 5 D/WK FOR 103 WK (STUDY DURATION: 2 YR), Dose: 0, 112, 225 MG/KG IN CORN OIL 5 D/WK FOR 103 WK (STUDY DURATION: 2 YR)).

As for `CCC(=O)Oc1ccc(/C(CC)=C(\CC)c2ccc(OC(=O)CC)cc2)cc1`, where the note is “Species: RAT, Route: SUBCUTANEOUS, Tumor Site: Type of Lesion: PITUITARY GLAND”, the carcinogen call was “active; positive”.

`Nc1ccc(N)c(Cl)c1`: the carcinogen call reads like this: (Species: MOUSE, Strain/Sex: B6C3F1/FEMALE, Route: ORAL, Dose: 0, 0.3, 0.6% OF DIET, Dose: 0, 0.3, 0.6% OF DIET) “inactive; negative”; (Species: MOUSE, Strain/Sex: B6C3F1/MALE, Route: ORAL, Dose: 0, 0.3, 0.6% OF DIET, Dose: 0, 0.3, 0.6% OF DIET) “inactive; negative”; (Species: RAT, Strain/Sex: F344/FEMALE, Route: ORAL, Dose: 0, 0.15, 0.30% OF DIET, Dose: 0, 0.15, 0.30% OF DIET) “inactive; negative”; (Species: RAT, Strain/Sex: F344/MALE, Route: ORAL, Dose: 0, 0.15, 0.30% OF DIET, Dose: 0, 0.15, 0.30% OF DIET) “inactive; negative”.

These data come from PubChem BioAssay AID1259411 (Chemical Carcinogenesis Research Information System (CCRIS), 2018).
